Test results as given in PMC7060258 (Scientific Reports, 2020).

What was measured:
[1] = test system: rat; details: cited from earlier work
[2] = test system: murine neuroblastoma Neuro2a cells; assay: Intracellular ROS formation level (H2DCF-DA); assay type: cell-based; details: 6-OHDA 25 µM alone
Protocol: We estimated whether rHCIQ2c1 is able to inhibit reactive oxygen species (ROS) production. After incubation of Neuro2a cells with rHCIQ2c1 (up to 10 µM) and 6-OHDA (25 µM), ROS content was evaluated by measurement of dichlorofluorescin intensity.
The intracellular ROS level was detected using 2,7-dichlordihydrofluorescein diacetate (H2DCF-DA) solution (Molecular Probes, final concentration 10 µM). In this study, mouse neuroblastoma Neuro2a cells seeded on 96-well plates were washed twice with serum-free DMEM and thereafter incubated for 1 h in serum-free MEM medium in the presence of compounds in concentrations from 10 pM to 10 µM. Cell were treated with 6-OHDA (25 μM) for 30 min at 37 °C with 5% CO2. Followed by treatment with 6-OHDA, the cells were washed once with PBS. After washing with serum-free DMEM medium, the cells were loaded with H2DCF-DA for 30 min. The intensity of dichlorofluorescin fluorescence was measured with plate reader PHERAstar FS (BMG Labtech, Germany) at λex = 485 nm and λem = 518 nm. The cytoprotective effect of peptides and the increase in cell viability under their action was calculated as a percentage, taking the cell viability treated with 6-OHDA as 100%.

Row | SMILES | Effect on MPTP-induced neurodegeneration and rat behavioral disturbances [1] | ROS level [2]
1 | Nc1ccncc1 [4-aminopyridine] | suppresses MPTP-induced neurodegeneration and rat behavioral disturbances | 
2 | NCCc1cc(O)c(O)cc1O [6-OHDA, 6-hydroxydopamine, reference compound] |  | highest ROS level
